Experiments:
[1] = tested on: p21-induced CMV-GFP expression (CDKI pathway); assay: CMV-GFP reporter assay for p21-induced transcription (HTS) in HT1080 p21-9 derived reporter cell line; type: cell-based, human; settings: for anti-CDKI pathway activity in the reporter assay (induction of CMV-GFP expression in response to p21): libraries screened at 20 μM
Text: As described in a co-pending patent application PCT/US06/0 1046, we have developed a high-throughput screening (HTS) procedure for compounds inhibiting the CDKI pathway. This procedure utilizes a highly sensitive reporter cell line that was generated by infecting HT1080 p21-9 cells, a derivative of HT1080 fibrosarcoma cells that express p21 from a promoter induced by a physiologically neutral β-galactoside IPTG (isopropyl-β-thio-galactoside) with a lentiviral vector that expresses Green Fluorescent Protein (GFP) from the CDKI-inducible cytomegalovirus (CMV) promoter, followed by subcloning of GFP positive cells and monitoring the induction of GFP expression by IPTG. A cell line showing approximately 10-fold increase in GFP upon the addition of IPTG was used for HTS in a 96-well format.
This reporter line was used to screen two diversified small-molecule libraries developed by ChemBridge Corp., Microformat 04 and DiverSet, each comprising 50,000 compounds. These diversified libraries were rationally chosen by ChemBridge by quantifying pharmacophores in a collection of >500,000 drug-like molecules, using a version of Chem-X software to maximize the pharmacophore diversity. The Microformat 04 collection was designed to complement the chemical space covered by the older DiverSet library. ChemBridge libraries have been successfully used by numerous industrial and academic researchers, in a variety of cell-based and cell-free assays. The ChemBridge libraries were screened at 20 μM concentration, a conventional concentration for cell-based screening of these libraries. 62 of 100,000 ChemBridge compounds were identified by HTS and verified as inhibiting the induction of CMV-GFP expression in response to p21. This low hit rate (0.06%) indicates a high selectivity of our assay.
In this experiment, HT1080 p21-9 cells that express firefly luciferase from a CDKI-responsive promoter of cellular NK4 gene were cultured with IPTG for two days, which is sufficient for near-maximal induction of NK4 (Poole et al., supra).

[2] = tested on: HT1080-derived reporter cell line; assay: Growth inhibition and cell death in HT1080-derived reporter cell line; type: cell-based, human; settings: cell death detected microscopically by cell detachment
Text: The combination of p21 and SNX9-class compounds leads to both G1 and G2/M arrest, at the levels expected for the combined effects of p21 and SNX9 (FIG. 6).

CDK1/cyclinB (h) = biological target: T1, CDK1/cyclinB (h) (Homo sapiens, UniProt P06493); assay: Cyclin/CDK kinase assay (Upstate), CDK1/cyclinB; type: biochemical; settings: 100 μM, re-tested at 20 and 40 μM (SNX9, SNX2) or 10 and 20 μM (SNX9-1, SNX14)
T1 construct: purchased Upstate Biotechnology, Inc
Procedure: To test the above hypothesis, we determined whether several CDKI pathway inhibitors, including two SNX9 class compounds (SNX9 and SNX9-1), two compounds of a different structural class (SNX14 and SNX2) and another unrelated inhibitor (SNX35), inhibit the kinase activity of different complexes formed in vitro by purified cyclin/CDK complexes. This analysis was carried out as a service by Upstate Biotechnology, Inc.
In a final reaction volume of 25 μl, CDK1/cyclinB (h) (5-10 μU) is incubated with 8 mM MOPS pH 7.0, 0.2 mM EDTA, 0.1 mg/ml histone H1, 10 mM MgAcetate and [γ-33P-ATP] (specific activity approx. 500 cpm/pmol, 45 μM concentration). The reaction is initiated by the addition of the MgATP mix. After incubation for 40 minutes at room temperature, the reaction is stopped by the addition of 5 μl of a 3% phosphoric acid solution. 10 μl of the reaction is then spotted onto a P30 filtermat and washed three times for 5 minutes in 75 mM phosphoric acid and once in methanol prior to drying and scintillation counting.
At the first step, all the compounds were tested at 100 μM concentration. […] For SNX14 and SNX2, the relative efficacy of inhibition was CDK1>CDK2˜CDK3>CDK6. For SNX9 and SNX9-1, the order was CDK3>CDK1>CDK2>CDK6 (FIG. 12).

[3] = tested on: isogenic human fibroblast cell lines (untransformed, partially transformed, fully transformed); assay: Dose-dependent growth inhibition of three isogenic human fibroblast cell lines with increasing neoplastic transformation; type: cell-based; settings: 3-day assay, Hoechst 33342
Text: To determine if tumor-specific growth inhibitory activity of SNX9 class compounds could be due to the inhibition of a specific CDK, we took advantage of the availability of selective inhibitors for some of the CDK proteins. Among these enzymes, CDK1, CDK2 and CDK4/CDK6 (the latter two CDKs are closely related to each other and interact with the same class of cyclins), have been used as targets for developing specific inhibitors, with potential anticancer activity. In contrast, CDK3 has not been used as a target for developing selective inhibitors. We have obtained commercially available selective inhibitors of CDK1 (CGP74514A) (Calbiochem Cat. No. 217696), CDK2 (CVT-313) (Calbiochem Cat. No. 238803), and CDK4 (NSC 625987) (Calbiochem Cat. No. 219477), and tested them, along with a broad-specificity CDK inhibitor flavopiridol, and with SNX14, SNX9 and SNX9-1, for growth inhibition of normal and transformed fibroblasts.
This analysis was done using a set of three isogenic human fibroblast cell lines with increasing degrees of neoplastic transformation (immortal but untransformed, partially transformed, and fully transformed).

T1 sequence (P06493 whole entry): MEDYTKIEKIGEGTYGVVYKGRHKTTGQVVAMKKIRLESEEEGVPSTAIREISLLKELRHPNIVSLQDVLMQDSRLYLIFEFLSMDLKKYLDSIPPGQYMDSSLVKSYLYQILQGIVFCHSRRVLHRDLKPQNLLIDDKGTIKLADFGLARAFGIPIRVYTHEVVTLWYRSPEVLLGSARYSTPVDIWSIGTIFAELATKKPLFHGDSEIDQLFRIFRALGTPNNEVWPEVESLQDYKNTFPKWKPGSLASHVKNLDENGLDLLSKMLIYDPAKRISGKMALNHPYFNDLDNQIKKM
T1 sequence (P14635 whole entry partner): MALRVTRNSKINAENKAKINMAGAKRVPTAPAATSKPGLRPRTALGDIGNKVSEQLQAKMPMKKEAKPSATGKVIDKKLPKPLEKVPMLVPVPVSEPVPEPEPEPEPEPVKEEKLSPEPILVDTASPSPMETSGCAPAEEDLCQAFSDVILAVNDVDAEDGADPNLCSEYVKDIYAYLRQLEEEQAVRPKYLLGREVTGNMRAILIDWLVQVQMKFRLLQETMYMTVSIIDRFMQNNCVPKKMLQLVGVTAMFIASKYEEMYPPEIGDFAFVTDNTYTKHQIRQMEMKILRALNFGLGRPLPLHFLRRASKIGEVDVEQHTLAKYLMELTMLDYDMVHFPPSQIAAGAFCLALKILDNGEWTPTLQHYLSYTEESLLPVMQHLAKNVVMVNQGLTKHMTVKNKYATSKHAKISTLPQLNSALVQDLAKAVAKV

Row | SMILES | anti-CDKI pathway activity in the reporter assay (induction of CMV-GFP expression in response to p21) [1] | growth inhibition of the HT1080-derived reporter cell line [2] | kinase activity of CDK1 (CDC2) (CDK1/cyclinB (h)) | selectivity of growth inhibition for transformed cell lines relative to immortal but untransformed fibroblasts [3] | normalized GFP expression without p21 induction ([1]; in the absence of IPTG) | normalized GFP expression with p21 induction ([1]; in the presence of IPTG, three days of p21 induction)
1 | NCCc1c[nH]c2c(Cl)cc(Cl)cc12 [SNX9-1] | showed anti-CDKI pathway activity in the reporter assay | associated with the induction of both cell death (as detected microscopically by cell detachment) and cell cycle arrest | inhibited the kinase activities | pronounced selectivity for partially transformed or fully transformed cell lines | – | –
2 | Cc1[nH]c2c(Cl)cccc2c1CCN [SNX9] | showed anti-CDKI pathway activity in the reporter assay | associated with the induction of both cell death (as detected microscopically by cell detachment) and cell cycle arrest | inhibited the kinase activities | pronounced selectivity for partially transformed or fully transformed cell lines | does not inhibit promoter function when p21 is not induced | pronounced inhibition of transcription by p21
